In publication PMC4434909, “In vitro properties of designed antimicrobial peptides that exhibit potent antipneumococcal activity and produces synergism in combination with penicillin” (Scientific Reports, 2015):
Entries after “also recorded” stand apart in the source; their conditions may differ. Read-outs that look alike come from different tables or passages of the source. Where no end group is shown, it is not given here.

How the values were obtained:
[1] = test system: Citrobacter spp.; assay type: cell-based; settings: Gram-negative, clinical isolate; broth microdilution, CAMHB, peptides 1.96–250 μg/ml
From the text: (§1) All bacterial strains were obtained from Department of Medical Microbiology, University of Malaya. Clinical isolates were previously obtained from University of Malaya Medical Centre and maintained in the laboratory. Sheep blood agar was used for pneumococcal cultivation purpose. Nutrient agar was used for cultivating E. coli ATCC 25922, S. aureus ATCC 25923, and P. aeruginosa ATCC 15442, Acinetobacter baumanii ATCC 15308, and one clinical isolate for each MRSA, E. cloacae, Citrobacter spp., and K. pneumoniae. For antimicrobial testing, Mueller-Hinton agar (MHA) and cationically-adjusted MHB (CAMHB) were prepared according to the Clinical and Laboratory Standard Institute guidelines. MHA for S. pneumoniae was supplemented with 5% (v/v) defibrinated sheep blood and 5% laked horse blood for CAMHB. All bacterial cultures were stored in multiple vials in brain heart infusion broth supplemented with 10% (v/v) glycerol at −80°C to avoid repeated freeze-thawed cycles on the cells. All freeze-stocked strains were passaged twice prior to experimentation.
(§2) Procedures were performed to determine the MIC of peptides according to the CLSI guidelines[21] against 60 pneumococcal isolates which consisted of 20 isolates each for PRSP, PISP, and PSSP. Strains were grown for 18–24 hrs at 37°C under 5% CO2. Direct suspension of the colonies were made in CAMHB and adjusted to OD625 0.08–0.1 which corresponds to 1 ~ 2 × 10^8 CFU/ml followed by serial ten-fold dilutions to give 1 × 10^6 CFU/ml. Fifty microliters of bacterial suspension was then aliquoted to 96-well round bottom microtiter plates containing equal volume of serially diluted peptides to give final concentrations of peptides encompassing the range of 1.96–250 μg/ml. […] The plates were incubated for 18–24 hrs at 37°C under 5% CO2. MIC was read as the concentration of peptide producing complete inhibition on the visible growth of the test organism. Results were pooled from three independent experiments. MIC range was defined as the range of concentrations where the peptides produce detectable antimicrobial activity. Effective percentage (EP) was the proportion of pneumococcal isolates inhibited within the MIC range. Since the isolates tested were obtained prior to 2008 where major revision in antibiotic susceptibility breakpoints were introduced, thus the pneumococci were defined according to the PEN susceptibility breakpoint (prior 2008) which corresponds to the PEN (oral penicillin V) breakpoint of the revised criteria.
(§3) The broad spectrum antibacterial activity of the peptides against a panel of eight clinically important bacteria was also determined, this includes S. aureus ATCC 25923, E. coli ATCC 25922, P. aeruginosa ATCC 15442, A. baumanii ATCC 15308, and one clinical isolate each for MRSA, E. cloacae, Citrobacter spp., and K. pneumoniae.

[2] = test system: E. coli ATCC 25922; assay type: cell-based
From the text: as §1, §2, §3

[3] = test system: S. aureus ATCC 25923; assay type: cell-based
From the text: as §1, §2, §3

[4] = test system: P. aeruginosa ATCC 15442; assay type: cell-based
From the text: as §1, §2, §3

[5] = test system: PRSP; experiment: Transmission electron microscopy of treated pneumococci; assay type: cell-based, Streptococcus pneumoniae; settings: PRSP 5 × 10^10 CFU/ml, peptides 8 mg/ml, four hours 37°C 5% CO2
Procedure: An overnight culture of PRSP on sheep blood agar was passaged twice and directly suspended in CAMHB. As sample for TEM required high cell density of about 10^8 to 10^10 to be viewable, the bacteria was prepared to 5 × 10^10 CFU/ml and treated with supra-concentration of peptides at 8 mg/ml for four hours at 37°C under 5% CO2. Cells treated with only water was served as the untreated control. For TEM sample preparation, standard protocol provided by the Electron Microscopic Unit, Faculty of Medicine, University of Malaya was followed. The cells were washed twice with CAMHB before overnight fixation in 4% (v/v) glutaraldehyde, two times postfix washes with cacodylate buffer, incubate, two hours incubation with osmium tetroxide buffer (OsO4 1: 1 cacodylate), and washed twice with cacodylate buffer before overnight incubation in the same buffer. Next, the samples were washed twice with double distilled water, 10 min of uranyl acetate incubation, and washed twice with double distilled water before subjected to dehydration by gradual ethanol series: 35% for 10 min, 50% for 10 min, 70% for 10 min, 95% for 15 min, and three rounds of absolute (100%) ethanol for 15 min. Following this, samples were incubated with two rounds of propylene oxide for 15 min, propylene oxide 1:1 Epon for 1 hr, propylene oxide 1:3 Epon for 2 hrs, overnight incubation with Epon, embedded in Agar 100 resin at 37°C for five hours, and maintained in 60°C until viewing. Ultrathin sectioning were prepared on Reichert Ultramicrotome, copper grids 3.05 mm (300 square mesh) (Agar Scientific), and stained with ethanol-based uranyl acetate and lead citrate for 5 min. The prepared samples were viewed with Leo Libra 120 under standard operating conditions.

[6] = test system: E. cloaceae; assay type: cell-based, E. cloacae; settings: Gram-negative, clinical isolate; broth microdilution, CAMHB, peptides 1.96–250 μg/ml
From the text: as §1, §2, §3

[7] = test system: MRSA; assay type: cell-based, methicillin-resistant S. aureus
From the text: as §1, §2, §3

[8] = test system: A. baumanii ATCC 15308; assay type: cell-based, Acinetobacter baumanii
From the text: as §1, §2, §3

[9] = test system: multiple gram-positive and gram-negative bacteria; assay type: cell-based; settings: range: DM3 against seven bacteria; DM4 and DM5 apart from higher MICs against E. cloaceae, K. pneumoniae, S. aureus
From the text: as §1, §2, §3

[10] = Gram-negative, broth microdilution, CAMHB, peptides 1.96–250 μg/ml
[11] = Gram-positive, broth microdilution, CAMHB, peptides 1.96–250 μg/ml
[12] = Gram-positive, clinical isolate, broth microdilution, CAMHB, peptides 1.96–250 μg/ml

Substance | MIC, Citrobacter spp. [1] [µg/mL] | MIC, E. coli ATCC 25922 ([2]; ATCC 25922) [µg/mL] | MIC, S. aureus ATCC 25923 ([3]; ATCC 25923) [µg/mL] | MIC, P. aeruginosa ATCC 15442 ([4]; ATCC 15442) [µg/mL] | changes in pneumococcal cell morphology (TEM) [5] | MIC, E. cloaceae [6] [µg/mL] | MIC, MRSA ([7]; methicillin-resistant) [µg/mL] | MIC, A. baumanii ATCC 15308 ([8]; ATCC 15308) [µg/mL] | antibacterial MIC range over the bacterial panel [9] [µg/mL] | MIC, E. coli ATCC 25922 [2, 10] [µg/mL] | MIC, S. aureus ATCC 25923 [3, 11] [µg/mL] | MIC, P. aeruginosa ATCC 15442 [4, 10] [µg/mL] | MIC, MRSA [7, 12] [µg/mL] | MIC, A. baumanii ATCC 15308 [8, 10] [µg/mL]
GLFDIWAWWRWRR-NH2 [DM2] | 62.5 | 250 | 31.3 | >250 | filamentous and stacked at one pole of the cell | >250 | 62.5 | 31.3 |  |  |  |  |  | 
GLFDIWKKLRWRR-NH2 [DM5] | 31.3 | 31.3 | 125 | 31.3 | Loss of cell wall fragments; also recorded: formation of cytoplasmic-containing inclusion bodies | 125 | 62.5 | 31.3 | 31.3 to 62.5 |  |  |  |  | 
GLFDIWKKWRWRR-NH2 [DM4] | 31.3 |  |  |  | Loss of cell wall fragments | 250 |  |  | 31.3 to 62.5 | 62.5 | 62.5 | 31.3 | 62.5 | 31.3
GLFDIWKWWRWRR-NH2 [DM3] | 15.63 | 62.5 | 15.63 | 125 | formation of cytoplasmic-containing inclusion bodies | 31.3 | 7.81 | 15.63 | 7.81 to 62.5 |  |  |  |  | 
GLFDKWAWWRWRR-NH2 [DM1] | 31.3 |  |  |  | formation of cytoplasmic-containing inclusion bodies | 125 |  |  |  | 62.5 | 125 | 125 | 62.5 | 62.5
